Reference: patent US20040234476A1, “Cosmetic preparation with anti-wrinkle action” (priority 2001, published 2004)
Where no end group is shown, it is not given here. The star is where a group is joined. Palmitoyl = CCCCCCCCCCCCCCCC(=O)*

System: cells
Test: in vitro studies of collagen and glycosaminoglycan synthesis by cells
Format: cell-based

For “palmitoyl-Lys-Thr-Thr-Lys-Ser (Palmitoyl-KTTKS) [lipopeptide]”, the “synthesis of collagen and glycosaminoglycans by cells” value was “induces cells to synthesize collagen and glycosaminoglycans”.
